According to US20130116292A1, “NEURORESTORATION WITH R(+) PRAMIPEXOLE” (University of Virginia Patent Foundation, priority 2005, published 2013):

Assays:
[1] = test system: D2 family of dopamine receptors; conditions: cited from earlier work
[2] = test system: dopamine neurons (MPTP toxicity); conditions: cellular and animal models of increased oxidative stress, including MPTP toxicity to dopamine neurons; cited from earlier work
[3] = test system: oxidative stress produced by MPP+ (ETC complex I inhibitor); conditions: both in vitro and in vivo; cited from earlier work
[4] = test system: mitochondrial transition pore (MTP); conditions: induced by MPP+ and other stimuli; cited from earlier work
[5] = test system: patients with amyotrophic lateral sclerosis (ALS); conditions: 30 mg/day for up to 8 weeks
Experimental: Phase I clinical studies with R(+) pramipexole were conducted in patients with amyotrophic lateral sclerosis (ALS), a fatal adult neurodegenerative disease arising from the loss of motor nerve cells. […] These reports included such things as regaining the ability to speak coherently, the ability to climb stairs again, and improved motor skills in their extremities, i.e. hands and/or fingers.

| SMILES | agonism of the D2 family of dopamine receptors [1] | neuroprotection [2] | effect on oxidative stress produced by MPP+ [3] | effect on opening of the mitochondrial transition pore (MTP) [4] | dopamine agonist activity ([1]; Schneider and Mierau, J. Med. Chem. 1987) | stability in aqueous solutions | patients reporting improvements in motor function [5] |
| --- | --- | --- | --- | --- | --- | --- | --- |
| CCCN[C@H]1CCc2nc(N)sc2C1 [S(−) PPX] | potent agonist | neuroprotective | reduces oxidative stress | can block the opening |  |  |  |
| CCCN[C@@H]1CCc2nc(N)sc2C1 [R(+) pramipexole, R-(+)-2-amino-4,5,6,7-tetrahydro-6-propylaminobenzathiazole] |  |  |  |  | very little | stable in aqueous solutions | approximately half the patients |
